Assay results: patent US20240109912A1, “TRICYCLIC PYRIMIDINES AS CYCLIN-DEPENDENT KINASE 7 (CDK7) INHIBITORS” (JANSSEN PHARMACEUTICA NV, priority 2020, published 2024)
Where “and” joins values, the source holds several entries; their conditions need not be identical. Equal entries are not always repeated. Where two headings read alike, the source gives them in different places.

Columns and labels:
[1] = test system: RNA polymerase II Serine 5 phosphorylation (CDK7) in A549 cells
[2] = target: CDK7/cyclinH/MAT1 trimeric complex (Homo sapiens (Human), UniProt P50613); assay: In vitro CDK7 assay, potency of irreversible covalent inhibitors (kinact/KI)
CDK7/cyclinH/MAT1 trimeric complex, sequence (P50613 whole entry): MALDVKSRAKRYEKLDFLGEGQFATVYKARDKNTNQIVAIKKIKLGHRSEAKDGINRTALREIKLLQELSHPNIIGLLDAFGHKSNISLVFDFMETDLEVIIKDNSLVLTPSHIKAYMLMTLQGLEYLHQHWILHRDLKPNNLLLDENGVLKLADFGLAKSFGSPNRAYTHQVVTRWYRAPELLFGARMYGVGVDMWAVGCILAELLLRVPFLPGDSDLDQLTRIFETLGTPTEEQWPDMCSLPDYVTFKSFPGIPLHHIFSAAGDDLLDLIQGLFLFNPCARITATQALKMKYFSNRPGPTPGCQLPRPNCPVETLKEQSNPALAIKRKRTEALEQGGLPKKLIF
CDK7/cyclinH/MAT1 trimeric complex, sequence (P51946 whole entry partner): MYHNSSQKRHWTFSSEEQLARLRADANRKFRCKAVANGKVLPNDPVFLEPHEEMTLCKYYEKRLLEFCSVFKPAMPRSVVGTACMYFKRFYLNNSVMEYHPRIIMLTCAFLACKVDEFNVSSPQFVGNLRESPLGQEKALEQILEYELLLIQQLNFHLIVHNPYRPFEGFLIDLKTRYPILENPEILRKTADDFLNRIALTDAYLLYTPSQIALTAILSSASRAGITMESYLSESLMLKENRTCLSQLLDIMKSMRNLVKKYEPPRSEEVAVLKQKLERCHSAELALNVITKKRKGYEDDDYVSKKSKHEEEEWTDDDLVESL
CDK7/cyclinH/MAT1 trimeric complex, sequence (P51948 whole entry partner): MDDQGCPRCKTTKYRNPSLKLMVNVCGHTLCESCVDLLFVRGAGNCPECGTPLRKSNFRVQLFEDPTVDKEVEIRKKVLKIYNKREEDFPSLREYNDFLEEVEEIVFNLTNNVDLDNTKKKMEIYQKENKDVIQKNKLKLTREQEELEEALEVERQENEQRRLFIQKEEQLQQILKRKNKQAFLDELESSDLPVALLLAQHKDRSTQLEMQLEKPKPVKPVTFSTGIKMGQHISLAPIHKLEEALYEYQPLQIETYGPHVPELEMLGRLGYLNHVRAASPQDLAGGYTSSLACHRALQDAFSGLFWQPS

[3] = test system: RNA polymerase II Serine 5 phosphorylation in A549 cells overexpressing CDK7 mutant (C312S); assay: Imaging-based cellular RNA PolII Ser5 phosphorylation assay in A549 cells overexpressing CDK7-mutant (C312S); format: cell-based, human; details: for IC50: Homo sapiens, A549, A549 cells overexpressing CDK7 mutant (C312S), read-out: CDK7_ A549 mutant hCDK7(pIC50) (converted); for CDK7_ A549 mutant hCDK7(pIC50): A549 cells overexpressing CDK7 mutant (C312S)
Outline: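 A stably transduced A549 pool overexpressing CDK7 C312S, a mutant that blocks covalent binding at Cys312, while retaining endogenous wild-type CDK7 was used. Ser5 phosphorylation was measured by imaging, and IC50 values were derived.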

[4] = CDK7 (20 nM enz.) (KI, μM), 20 nM enz.
[5] = read-out: CDK7 (20 nM enz.) (kinact, s^−1), 20 nM enz.
[6] = read-out: CDK7 (20 nM enz.) (kinact/ KI, M^−1*s^−1), 20 nM enz.
[7] = read-out: CDK7 (kinact, s^−1), Table B
[8] = read-out: CDK7 (kinact/KI, M^−1*s^−1), Table B

SMILES	IC50 [1]	Ki [2, 4]	kinact [2, 5] [s⁻¹]	kinact/KI [2, 6] [M⁻¹ s⁻¹]	IC50 [3] [nM]	CDK7 (20 nM enz.) (kinact, s^−1) ([2]; 20 nM enz.) [s⁻¹]	CDK7 (20 nM enz.) (kinact/ KI, M^−1*s^−1) ([2]; 20 nM enz.) [M⁻¹ s⁻¹]	CDK7_ A549 mutant hCDK7(pIC50) [3]	CDK7 (20 nM enz.) (kobs/[I], M^−1*s^−1) ([2]; 20 nM enz.) [M⁻¹ s⁻¹]	Ki ([2]; CDK7 (KI(μM)), Table B) [µM]	kinact [2, 7] [s⁻¹]	kinact/KI [2, 8] [M⁻¹ s⁻¹]
C=CC(=O)N1CC[C@H](N2CC(c3cc4c(c(C)n3)OCc3c(ncnc3N3CCS(=O)(=O)CC3)N4)C2)C1 (single isomer, unassigned) [compound 78]	5370 nM	0.168 µM	3.85e-05	229	> 10000	–	–	–	–	–	–	–
C=CC(=O)N1CC[C@@H](N2CC(c3cc4c(c(C)n3)OCc3c(ncnc3N3CCS(=O)(=O)CC3)N4)C2)C1 (single isomer, unassigned) [compound 79]	4570 nM	0.189 µM	3.93e-05	209	> 10000	–	–	–	–	–	–	–
C=CC(=O)N1CC(N2CCC(c3cc4c(cn3)O[C@H](C)c3c(ncnc3N3CCOCC3)N4)CC2)C1 (single isomer, unassigned) [compound 83]	138 nM	0.059 µM	–	–	–	2.22e-05	376.933	<5.4	–	–	–	–
C=CC(=O)N1CC(N2CC(c3cc(C)c4c(c3)Nc3ncnc(-c5cnn(C)c5)c3[C@@H](C)O4)C2)C1 (single isomer, unassigned) [compound 109]	363 nM	0.13 µM	4.5e-05	345	> 10000	–	–	–	–	–	–	–
C=CC(=O)N1CC[C@H](N2CC(c3cc(C)c4c(c3)Nc3ncnc(N5CCS(=O)(=O)CC5)c3[C@H](C)O4)C2)C1 (single isomer, unassigned) [compound 116]	191 nM and 269 nM	0.3 µM and 0.189 µM	4.57e-05	152	> 10000	3.89e-05	206.471	<5	–	–	–	–
C=CC(=O)N1CC[C@@H](N2CC(c3cc(C)c4c(c3)Nc3ncnc(N5CCS(=O)(=O)CC5)c3[C@H](C)O4)C2)C1 (single isomer, unassigned) [compound 118]	204 nM and 339 nM	0.28 µM and 0.281 µM	4.2e-05	150	> 10000	5.02e-05	179.017	<5	–	–	–	–
C=CC(=O)N1CC[C@H](N2CC(c3cc(C)c4c(c3)Nc3ncnc(N5CCS(=O)(=O)CC5)c3[C@@H](C)O4)C2)C1 (single isomer, unassigned) [compound 121]	28.2 nM and ~31.6 nM	–	–	–	–	–	611.255	<5	1089.23	–	–	–
CC#CC(=O)N1CC(N2CCC(c3cc4c(c(C)n3)O[C@@H](C)c3c(ncnc3N3CCS(=O)(=O)CC3)N4)CC2)C1 (single isomer, unassigned) [compound 140]	3160 nM	2.57 µM	8.1e-05	31.5	> 10000	–	–	–	–	–	–	–
CC#CC(=O)N1CC(N2CCC(c3cc(C)c4c(c3)Nc3ncnc(N5CCS(=O)(=O)CC5)c3[C@H](C)O4)CC2)C1 (single isomer, unassigned) [compound 150]	316 nM and 457 nM	0.283 µM and 0.18 µM	6.55e-05	231	> 10000	4.7e-05	261.659	–	–	–	–	–
C#Cc1cc(C2CCN(C3CN(C(=O)C=C)C3)CC2)cc2c1O[C@H](C)c1c(ncnc1N1CCS(=O)(=O)CC1)N2 (single isomer, unassigned) [compound 189]	195 nM and 200 nM	0.0806 µM	8.1e-05	879	> 10000	–	–	–	–	–	–	–
C=CC(=O)NCCN1CCC(c2ccc3c(c2)Nc2ncnc(N4CCOCC4)c2CO3)CC1 [compound 3]	912 nM	–	–	–	> 10000	–	–	–	–	1.03	0.000166	161
C=CC(=O)N1CC[C@H](N2CCC(c3ccc4c(c3)Nc3ncnc(N5CCOCC5)c3CO4)CC2)C1 [compound 5]	891 nM	–	–	–	~8910	–	–	–	–	0.595	0.000243	408
C=CC(=O)N1CC(N2CCN(c3ccc4c(c3)Nc3ncnc(N5CCOCC5)c3CO4)CC2)C1 [compound 6]	3800 nM	–	–	–	> 10000	–	–	–	–	2.73	0.000504	185
C=CC(=O)N1CC(N2CCC(c3ccc4c(c3)Nc3ncnc(-c5ccc(=O)n(C)c5)c3CO4)CC2)C1 [compound 8]	5500 nM	–	–	–	> 10000	–	–	–	–	0.251	0.000188	749
C=CC(=O)N1CC(N2CC[C@@H](c3ccc4c(c3)Nc3ncnc(N5CCOCC5)c3CO4)C2)C1 [compound 10]	1820 nM	–	–	–	> 10000	–	–	–	–	0.38	0.000155	409
C=CC(=O)N1CCC(N2CCC(c3cc(C)c4c(c3)Nc3ncnc(N5CCOCC5)c3CO4)CC2)C1 (stereo not drawn) [compound 11]	288 nM	0.0411 µM	3.59e-05	874	8910	–	–	–	–	–	–	–
C=CC(=O)N1CC[C@H](N2CCC(c3cc(C)c4c(c3)Nc3ncnc(N5CCOCC5)c3CO4)CC2)C1 [compound 12]	457 nM and 282 nM	0.191 µM and 0.498 µM	7.04e-05	368	> 10000	0.0001275	256.184	–	–	–	–	–

SMILES	IC50 [1]	Ki [2, 4]	kinact [2, 5] [s⁻¹]	kinact/KI [2, 6] [M⁻¹ s⁻¹]	IC50 [3] [nM]	CDK7 (20 nM enz.) (kinact, s^−1) ([2]; 20 nM enz.) [s⁻¹]	CDK7 (20 nM enz.) (kinact/ KI, M^−1*s^−1) ([2]; 20 nM enz.) [M⁻¹ s⁻¹]	CDK7_ A549 mutant hCDK7(pIC50) [3]	CDK7 (20 nM enz.) (kobs/[I], M^−1*s^−1) ([2]; 20 nM enz.) [M⁻¹ s⁻¹]	Ki ([2]; CDK7 (KI(μM)), Table B) [µM]	kinact [2, 7] [s⁻¹]	kinact/KI [2, 8] [M⁻¹ s⁻¹]
C=CC(=O)N1CC[C@@H](N2CCC(c3cc(C)c4c(c3)Nc3ncnc(N5CCOCC5)c3CO4)CC2)C1 [compound 13]	275 nM and 234 nM	0.0781 µM and 0.315 µM	5.64e-05	–	> 10000	8.3e-05	–	–	–	–	–	–
C=CC(=O)N1CCC(N2CCC(c3ccc4c(c3)Nc3ncnc(N5CCOCC5)c3CO4)CC2)C(F)C1 (stereo not drawn) [compound 15]	955 nM	0.632 µM	5.72e-05	90.5	> 10000	–	–	–	–	–	–	–
C=CC(=O)N1CC[C@@H](N2CC(c3cc(C)c4c(c3)Nc3ncnc(N5CCOCC5)c3CO4)C2)C1 [compound 17]	380 nM	0.716 µM	6.7e-05	93.7	> 10000	–	–	–	–	–	–	–
C=CC(=O)N1CC[C@H](N2CC(c3cc(C)c4c(c3)Nc3ncnc(N5CCOCC5)c3CO4)C2)C1 [compound 18]	380 nM	0.529 µM	8.2e-05	155	> 10000	–	–	–	–	–	–	–
C=CC(=O)N1CCC(N2CC(c3cc(Cl)c4c(c3)Nc3ncnc(C5CCOCC5)c3CO4)C2)CC1 [compound 19]	871 nM	0.542 µM	8.14e-05	150	> 10000	–	–	–	–	–	–	–
C=CC(=O)N1CC(N2CCC(c3cc(F)c4c(c3)Nc3ncnc(N5CCOCC5)c3CO4)CC2)C1 [compound 20]	646 nM	0.0693 µM	4.85e-05	699	> 10000	–	–	–	–	–	–	–
C=CC(=O)N1CC(N2CCC(c3cc(F)c4c(c3)Nc3ncnc(-c5cnn(C)c5)c3CO4)CC2)C1 [compound 21]	832 nM	0.408 µM	5.42e-05	133	> 10000	–	–	–	–	–	–	–
C=CC(=O)N1CC(N2CC[C@@H](c3cc(C)c4c(c3)Nc3ncnc(N5CCOCC5)c3CO4)C2)C1 [compound 22]	~617 nM	0.208 µM	6.38e-05	307	> 10000	–	–	–	–	–	–	–
C=CC(=O)N1CC(N2CC[C@H](c3cc(C)c4c(c3)Nc3ncnc(N5CCOCC5)c3CO4)C2)C1 [compound 23]	603 nM	0.255 µM	5.86e-05	230	> 10000	–	–	–	–	–	–	–
C=CC(=O)N1CCC(N2CC[C@H](c3cc(C)c4c(c3)Nc3ncnc(N5CCOCC5)c3CO4)C2)CC1 [compound 24]	646 nM	0.533 µM	4.78e-05	89.6	> 10000	–	–	–	–	–	–	–
C=CC(=O)N1CCC(N2CC[C@@H](c3cc(C)c4c(c3)Nc3ncnc(N5CCOCC5)c3CO4)C2)CC1 [compound 25]	741 nM	1.22 µM	6.34e-05	52.1	> 10000	–	–	–	–	–	–	–
C=CC(=O)N1CCC(N2CC(c3cc(F)c4c(c3)Nc3ncnc(N5CCOCC5)c3[C@H](C)O4)C2)CC1 [compound 26]	288 nM	0.336 µM	4.84e-05	203	> 10000	–	–	–	–	–	–	–
C=CC(=O)N1CCC(N2CC(c3cc(F)c4c(c3)Nc3ncnc(N5CCOCC5)c3[C@@H](C)O4)C2)CC1 [compound 27]	4790 nM	5.21 µM	4.89e-05	9.39	> 10000	–	–	–	–	–	–	–
C=CC(=O)N1CCC(N2CC(c3cc(C)c4c(c3)Nc3ncnc(N5CCOCC5)c3CO4)C2)C(F)C1 (stereo not drawn) [compound 28]	759 nM	0.686 µM	8.88e-05	129	> 10000	–	–	–	–	–	–	–
C=CC(=O)N1CCC(N2CC(c3cc(C)c4c(c3)Nc3ncnc(N5CCOCC5)c3CO4)C2)C(F)C1 (stereo not drawn) [compound 29]	1120 nM	0.78 µM	–	–	–	7.3e-05	93.6387	<5	–	–	–	–
C=CC(=O)N1CC(N2CC[C@@H](c3cc4c(c(C)n3)OCc3c(ncnc3N3CCS(=O)(=O)CC3)N4)C2)C1 [compound 30]	1510 nM	0.175 µM	5.79e-05	330	> 10000	–	–	–	–	–	–	–
